Results on 20 compounds are retold here after US8299267B2, “(3-hydroxy-4-amino-butan-2-yl) -3- (2-thiazol-2-yl-pyrrolidine-1-carbonyl) benzamide derivatives and related compounds as beta-secretase inhibitors for treating” (CoMentis, Inc., priority 2007, dated 2012).

SMILES strings stand for the structures.

The target of one assay is memapsin 2 (Homo sapiens, UniProt P56817). Briefly: Inhibition of memapsin 2 beta-secretase activity toward fluorogenic substrate FS-2. The class given is biochemical. The conditions noted are these: memapsin 2, pH 4, 37° C., 20 minutes pre-incubation, substrate FS-2; read-out: M2Ki. The gist of the method: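 Memapsin 2 was preincubated with compound 20 min at pH 4, 37 °C, then reacted with fluorogenic substrate FS-2 (MCA-SEVNLDAEFK-DNP), an APP-derived Swedish-variant peptide. Inhibition was followed kinetically by fluorescence.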

Assay [1] has as its system Aβ production in Chinese hamster ovary cells that over-express human APP695 with the London and Swedish mutations. Briefly: Cellular Aβ IC50 determination (Aβ40 sandwich ELISA). In kind it is cell-based. The conditions noted are these: Cricetulus griseus; Aβ40 in CHO cells over-expressing human APP695, 24 h incubation. On the procedure: The potency of compounds against memapsin 2 activity was determined in a cellular assay of Aβ production. […] Chinese hamster ovary cells that over-express human APP695 with the London and Swedish mutations were seeded in multi-well plates at 10% confluency. Compounds are dissolved in DMSO to concentrations near 1 mM, and diluted into culture media to a final concentration near 4 μM (final 0.4% DMSO). Compounds were diluted serially and applied to cells in multi-well plates 48 h after seeding. Incubation was continued in 5% CO2 at 37° C. for 24 h. Aliquots were removed and assayed for Aβ40 content using a sandwich ELISA (BioSource International). Amount of Aβ40 over the range of concentration of compounds, relative to control incubations, were fit to a 4-parameter IC50 model.
In general terms: An ELISA detects its analyte on a solid surface through an enzyme-linked reagent.

memapsin 2, sequence (P56817 46-501): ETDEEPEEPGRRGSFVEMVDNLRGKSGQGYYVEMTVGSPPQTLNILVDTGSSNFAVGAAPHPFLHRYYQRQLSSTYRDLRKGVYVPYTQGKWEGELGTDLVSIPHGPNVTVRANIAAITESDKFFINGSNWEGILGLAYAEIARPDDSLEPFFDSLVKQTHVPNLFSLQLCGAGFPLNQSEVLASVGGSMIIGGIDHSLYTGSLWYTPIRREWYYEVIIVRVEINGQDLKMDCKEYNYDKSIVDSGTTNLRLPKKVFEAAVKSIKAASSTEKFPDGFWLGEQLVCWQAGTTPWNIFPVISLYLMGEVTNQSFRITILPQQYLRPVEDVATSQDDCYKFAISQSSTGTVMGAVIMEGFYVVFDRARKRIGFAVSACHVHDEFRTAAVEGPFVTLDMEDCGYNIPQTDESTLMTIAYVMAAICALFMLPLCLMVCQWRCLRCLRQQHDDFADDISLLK

For the compound `Cc1csc([C@H]2CCCN2C(=O)c2cccc(C(=O)N[C@@H](Cc3ccccc3)[C@H](O)CNCc3cc(C)on3)c2)n1` [Compound 66, N-((2S,3R)-3-hydroxy-4-((5-methylisoxazol-3-yl)methylamino)-1-phenylbutan-2-yl)-3-((R)-2-(4-methylthiazol-2-yl)pyrrolidine-1-carbonyl)benzamide], on memapsin 2, the Ki is less than 100 nM. Moreover, the IC50 in assay [1] is less than 300 nM.
As for `Cc1csc([C@H]2COCN2C(=O)c2cccc(C(=O)N[C@@H](Cc3ccccc3)[C@H](O)CNCc3cccc(C(F)(F)F)c3)c2)n1` [Compound 26, N-((2S,3R)-3-hydroxy-1-phenyl-4-(3-(trifluoromethyl)benzylamino)butan-2-yl)-3-((R)-4-(4-methylthiazol-2-yl)oxazolidine-3-carbonyl)benzamide], the Ki on memapsin 2 is less than 100 nM. Besides, in assay [1], the IC50 is less than 300 nM.
Consider `Cc1csc([C@H]2CCCN2C(=O)c2cc(C(=O)N[C@@H](Cc3ccccc3)[C@H](O)CNCc3cccc(C(F)(F)F)c3)cc(C(F)F)c2)n1` [Compound 57, 3-(difluoromethyl)-N-((2S,3R)-3-hydroxy-1-phenyl-4-(3-(trifluoromethyl)benzylamino)butan-2-yl)-5-((R)-2-(4-methylthiazol-2-yl)pyrrolidine-1-carbonyl)benzamide], for which the Ki at memapsin 2 is less than 100 nM. The compound further registered an IC50 in assay [1] of less than 300 nM.
In the case of `Cc1csc([C@H]2CCCN2C(=O)c2cc(C(=O)N[C@@H](Cc3ccccc3)[C@H](O)CNCc3cncc(C(C)C)c3)cc(-n3cccc3)c2)n1` [Compound 74, N-((2S,3R)-3-hydroxy-4-((5-isopropylpyridin-3-yl)methylamino)-1-phenylbutan-2-yl)-3-((R)-2-(4-methylthiazol-2-yl)pyrrolidine-1-carbonyl)-5-(1H-pyrrol-1-yl)benzamide], the Ki on memapsin 2 was less than 100 nM. In assay [1], this compound returned an IC50 of less than 300 nM.
The corresponding values for `COc1cccc([C@H](C)NC[C@@H](O)[C@H](Cc2ccccc2)NC(=O)c2cccc(C(=O)N3CCC[C@@H]3c3nc(C)cs3)c2)c1` [Compound 22, N-((2S,3R)-3-hydroxy-4-((S)-1-(3-methoxyphenyl)ethylamino)-1-phenylbutan-2-yl)-3-((R)-2-(4-methylthiazol-2-yl)pyrrolidine-1-carbonyl)benzamide] are less than 100 nM and less than 300 nM.
For `Cc1csc([C@H]2CCCN2C(=O)c2cncc(C(=O)N[C@@H](Cc3ccccc3)[C@H](O)CNCc3cncc(C(C)(C)F)c3)c2)n1` [Compound 44, N-((2S,3R)-4-((5-(2-fluoropropan-2-yl)pyridin-3-yl)methylamino)-3-hydroxy-1-phenylbutan-2-yl)-5-((R)-2-(4-methylthiazol-2-yl)pyrrolidine-1-carbonyl)nicotinamide] the same measures were less than 100 nM and less than 300 nM.
The corresponding values for `COc1cc(C(=O)N[C@@H](Cc2ccccc2)[C@H](O)CNCc2cccc(Cl)c2)cc(C(=O)N2CCC[C@@H]2c2nc(C)cs2)c1` [Compound 18, N-((2S,3R)-4-(3-chlorobenzylamino)-3-hydroxy-1-phenylbutan-2-yl)-3-methoxy-5-((R)-2-(4-methylthiazol-2-yl)pyrrolidine-1-carbonyl)benzamide] are less than 100 nM and less than 300 nM.
Regarding `Cc1cc(C(=O)N[C@@H](Cc2ccccc2)[C@H](O)CNCc2cncc(C(C)(C)F)c2)cc(C(=O)N2CCC[C@@H]2c2nc(C)co2)c1` [Compound 59, N-((2S,3R)-4-((5-(2-fluoropropan-2-yl)pyridin-3-yl)methylamino)-3-hydroxy-1-phenylbutan-2-yl)-3-methyl-5-((R)-2-(4-methyloxazol-2-yl)pyrrolidine-1-carbonyl)benzamide], the Ki on memapsin 2 was less than 100 nM. Also, the IC50 in assay [1] was less than 300 nM.
Take `Cc1csc([C@H]2CCCN2C(=O)c2cc(C(=O)N[C@@H](Cc3ccccc3)[C@H](O)CNCc3cncc(C(C)C)c3)cc(-c3cnccn3)c2)n1` [Compound 43, N-((2S,3R)-3-hydroxy-4-((5-isopropylpyridin-3-yl)methylamino)-1-phenylbutan-2-yl)-3-((R)-2-(4-methylthiazol-2-yl)pyrrolidine-1-carbonyl)-5-(pyrazin-2-yl)benzamide]: the Ki on memapsin 2 is less than 100 nM. Also, the IC50 in assay [1] was less than 300 nM.
`Cc1csc([C@H]2CCCN2C(=O)c2cc(C(=O)N[C@@H](Cc3ccccc3)[C@H](O)CNCc3cccc(C(F)(F)F)c3)cc(-n3cccc3)c2)n1` [Compound 80, N-((2S,3R)-3-hydroxy-1-phenyl-4-(3-(trifluoromethyl)benzylamino)butan-2-yl)-3-((R)-2-(4-methylthiazol-2-yl)pyrrolidine-1-carbonyl)-5-(1H-pyrrol-1-yl)benzamide]: the Ki at memapsin 2 is less than 100 nM. Besides, the IC50 in assay [1] was less than 300 nM.
Consider `Cc1csc([C@H]2CCCN2C(=O)c2cc(C(=O)N[C@@H](Cc3ccccc3)[C@H](O)CNCc3cccc(C(F)(F)F)c3)nc(N(C)C)c2)n1` [Compound 81, 6-(dimethylamino)-N-((2S,3R)-3-hydroxy-1-phenyl-4-(3-(trifluoromethyl)benzylamino)butan-2-yl)-4-((R)-2-(4-methylthiazol-2-yl)pyrrolidine-1-carbonyl)picolinamide], for which the Ki on memapsin 2 is less than 100 nM. This compound gave an IC50 in assay [1] of less than 300 nM.
The corresponding values for `Cc1cc(C(=O)N[C@@H](Cc2ccccc2)[C@H](O)CNCc2cccc(C(F)(F)F)c2)cc(C(=O)N2CCC[C@@H]2c2nc(C)co2)c1` [Compound 55, N-((2S,3R)-3-hydroxy-1-phenyl-4-(3-(trifluoromethyl)benzylamino)butan-2-yl)-3-methyl-5-((R)-2-(4-methyloxazol-2-yl)pyrrolidine-1-carbonyl)benzamide] are less than 100 nM and less than 300 nM.
For `Cc1coc([C@H]2CCCN2C(=O)c2cc(C(=O)N[C@@H](Cc3ccccc3)[C@H](O)CNCc3cncc(C(C)C)c3)cc(-c3ncco3)c2)n1` [Compound 86, N-((2S,3R)-3-hydroxy-4-((5-isopropylpyridin-3-yl)methylamino)-1-phenylbutan-2-yl)-3-((R)-2-(4-methyloxazol-2-yl)pyrrolidine-1-carbonyl)-5-(oxazol-2-yl)benzamide] the same measures were less than 100 nM and less than 300 nM.
For the compound `COc1cc(C(=O)N[C@@H](Cc2ccccc2)[C@H](O)CNCc2cccc(C(F)(F)F)c2)cc(C(=O)N2CCC[C@@H]2c2nc(C)co2)c1` [Compound 93, N-((2S,3R)-3-hydroxy-1-phenyl-4-(3-(trifluoromethyl)benzylamino)butan-2-yl)-3-methoxy-5-((R)-2-(4-methyloxazol-2-yl)pyrrolidine-1-carbonyl)benzamide], the Ki on memapsin 2 is less than 100 nM. In assay [1], this compound showed a concentration for half-maximal inhibition (IC50) of less than 300 nM.
With `Cc1csc([C@H]2CCCN2C(=O)c2cccc(C(=O)N[C@@H](Cc3ccccc3)[C@H](O)CN[C@H](C)c3cncc(C(C)C)c3)c2)n1` [Compound 46, N-((2S,3R)-3-hydroxy-4-((R)-1-(5-isopropylpyridin-3-yl)ethylamino)-1-phenylbutan-2-yl)-3-((R)-2-(4-methylthiazol-2-yl)pyrrolidine-1-carbonyl)benzamide], the Ki on memapsin 2 was less than 100 nM. Besides, the IC50 in assay [1] is less than 300 nM.
The corresponding values for `Cc1csc([C@H]2CCCN2C(=O)c2cc(C(=O)N[C@@H](Cc3ccccc3)[C@H](O)CNCc3cccc(C(F)(F)F)c3)cc(-c3cccc(Cl)c3)n2)n1` [Compound 91, 2-(3-chlorophenyl)-N-((2S,3R)-3-hydroxy-1-phenyl-4-(3-(trifluoromethyl)benzylamino)butan-2-yl)-6-((R)-2-(4-methylthiazol-2-yl)pyrrolidine-1-carbonyl)isonicotinamide] are less than 100 nM and 301 to 500 nM.
For `Cc1cc(CNC[C@@H](O)[C@H](Cc2ccccc2)NC(=O)c2cccc(C(=O)N3CCC[C@@H]3c3nc(C)cs3)c2)on1` [Compound 65, N-((2S,3R)-3-hydroxy-4-((3-methylisoxazol-5-yl)methylamino)-1-phenylbutan-2-yl)-3-((R)-2-(4-methylthiazol-2-yl)pyrrolidine-1-carbonyl)benzamide] the same measures were more than 201 nM and 301 to 500 nM.
For `Cc1csc([C@H]2CCCN2C(=O)c2cc(C(=O)N[C@@H](Cc3ccccc3)[C@H](O)CNCc3cccc(C(F)(F)F)c3)cc(-c3ccc(F)nc3)n2)n1` [Compound 88, 6′-fluoro-N-((2S,3R)-3-hydroxy-1-phenyl-4-(3-(trifluoromethyl)benzylamino)butan-2-yl)-6-((R)-2-(4-methylthiazol-2-yl)pyrrolidine-1-carbonyl)-2,3′-bipyridine-4-carboxamide], on memapsin 2, the Ki was in the range of 101 to 200 nM. The IC50 in assay [1] was less than 300 nM.
For `Cc1coc([C@H]2CCCN2C(=O)c2cc(C(=O)N[C@@H](Cc3ccccc3)[C@H](O)CNCc3cncc(C(C)(C)F)c3)cc(-c3ncco3)c2)n1` [Compound 90, N-((2S,3R)-4-((5-(2-fluoropropan-2-yl)pyridin-3-yl)methylamino)-3-hydroxy-1-phenylbutan-2-yl)-3-((R)-2-(4-methyloxazol-2-yl)pyrrolidine-1-carbonyl)-5-(oxazol-2-yl)benzamide] the same measures were less than 100 nM and less than 300 nM.
Consider `Cc1cc(C(=O)N[C@@H](Cc2ccccc2)[C@H](O)CNCc2cncc(C(C)C)c2)cc(C(=O)N2CCC[C@@H]2c2nc(C)cs2)c1` [Compound 52, N-((2S,3R)-3-hydroxy-4-((5-isopropylpyridin-3-yl)methylamino)-1-phenylbutan-2-yl)-3-methyl-5-((R)-2-(4-methylthiazol-2-yl)pyrrolidine-1-carbonyl)benzamide], for which the Ki on memapsin 2 was less than 100 nM. In assay [1], this compound registered an IC50 of less than 300 nM.

For orientation: IC50 means the midpoint of a concentration-inhibition curve. A higher IC50 goes with weaker potency.
